Laboratory results from ChEMBL document CHEMBL5465560, “Selectivity Literature for EUbOPEN Chemogenomic Library” (2024).
One block for each molecule: values may come before it.

Experiments:
[1] = target: Non-receptor tyrosine-protein kinase TYK2 (Homo sapiens, UniProt P29597); assay: Selectivity interaction (Ambit KINOMEscan and KiNATiv profiling in Jurkat cells) EUB0000090b TYK2; assay type: cell-based; settings: at 1 µM
[2] = target: T1, Dual specificity mitogen-activated protein kinase kinase 3 (Homo sapiens) (UniProt P46734); assay: Selectivity interaction (LanthaScreen Eu Kinase Binding Assay) EUB0001632a MAP2K3; settings: at 10 µM
T1 sequence (whole entry): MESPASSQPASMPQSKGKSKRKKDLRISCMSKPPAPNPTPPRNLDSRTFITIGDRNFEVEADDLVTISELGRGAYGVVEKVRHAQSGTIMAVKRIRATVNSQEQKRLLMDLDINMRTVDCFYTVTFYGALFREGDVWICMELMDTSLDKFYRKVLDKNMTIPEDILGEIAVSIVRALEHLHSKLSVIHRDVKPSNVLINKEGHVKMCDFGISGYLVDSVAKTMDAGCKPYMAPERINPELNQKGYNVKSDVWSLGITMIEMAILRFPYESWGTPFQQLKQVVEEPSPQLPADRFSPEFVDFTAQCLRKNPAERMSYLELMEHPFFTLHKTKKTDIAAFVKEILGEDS

[3] = target: T2, Ephrin type-A receptor 6 (Homo sapiens) (UniProt Q9UF33); settings: at 10 µM
T2 sequence (whole entry): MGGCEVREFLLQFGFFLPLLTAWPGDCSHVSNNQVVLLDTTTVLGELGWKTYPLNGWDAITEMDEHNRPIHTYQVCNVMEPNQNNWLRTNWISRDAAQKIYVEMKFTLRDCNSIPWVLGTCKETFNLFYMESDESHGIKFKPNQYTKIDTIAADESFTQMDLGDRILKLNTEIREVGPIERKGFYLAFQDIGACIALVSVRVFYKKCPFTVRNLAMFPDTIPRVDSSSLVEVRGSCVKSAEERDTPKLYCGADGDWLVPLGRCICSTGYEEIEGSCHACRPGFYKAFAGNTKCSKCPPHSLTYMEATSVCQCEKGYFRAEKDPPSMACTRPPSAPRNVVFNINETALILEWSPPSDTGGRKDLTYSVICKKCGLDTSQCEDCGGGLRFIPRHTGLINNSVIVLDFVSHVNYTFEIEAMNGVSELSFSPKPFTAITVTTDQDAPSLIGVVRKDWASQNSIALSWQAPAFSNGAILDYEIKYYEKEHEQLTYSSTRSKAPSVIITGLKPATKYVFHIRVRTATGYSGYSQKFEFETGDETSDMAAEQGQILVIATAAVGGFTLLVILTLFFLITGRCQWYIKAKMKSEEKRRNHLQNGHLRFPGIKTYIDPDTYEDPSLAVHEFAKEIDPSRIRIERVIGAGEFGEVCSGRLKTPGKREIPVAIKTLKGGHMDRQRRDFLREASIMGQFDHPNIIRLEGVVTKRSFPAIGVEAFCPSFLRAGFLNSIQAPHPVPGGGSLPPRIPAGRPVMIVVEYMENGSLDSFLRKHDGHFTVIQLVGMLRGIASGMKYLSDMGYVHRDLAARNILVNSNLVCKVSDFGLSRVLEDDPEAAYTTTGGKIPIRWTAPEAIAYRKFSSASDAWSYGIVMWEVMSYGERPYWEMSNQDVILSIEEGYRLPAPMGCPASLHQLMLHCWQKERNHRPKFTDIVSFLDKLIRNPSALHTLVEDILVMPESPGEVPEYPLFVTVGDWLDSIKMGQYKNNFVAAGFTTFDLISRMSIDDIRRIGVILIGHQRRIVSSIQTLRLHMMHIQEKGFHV

[4] = target: Sodium-dependent serotonin transporter (Homo sapiens, UniProt P31645); assay: Selectivity interaction (Panel of non-epigenetic targets (kinases, GPCRs, ion channels, and transporters, Eurofins) ) EUB0000271b SLC6A4; settings: at 1 µM
Sodium-dependent serotonin transporter, sequence (P31645 whole entry, looked up): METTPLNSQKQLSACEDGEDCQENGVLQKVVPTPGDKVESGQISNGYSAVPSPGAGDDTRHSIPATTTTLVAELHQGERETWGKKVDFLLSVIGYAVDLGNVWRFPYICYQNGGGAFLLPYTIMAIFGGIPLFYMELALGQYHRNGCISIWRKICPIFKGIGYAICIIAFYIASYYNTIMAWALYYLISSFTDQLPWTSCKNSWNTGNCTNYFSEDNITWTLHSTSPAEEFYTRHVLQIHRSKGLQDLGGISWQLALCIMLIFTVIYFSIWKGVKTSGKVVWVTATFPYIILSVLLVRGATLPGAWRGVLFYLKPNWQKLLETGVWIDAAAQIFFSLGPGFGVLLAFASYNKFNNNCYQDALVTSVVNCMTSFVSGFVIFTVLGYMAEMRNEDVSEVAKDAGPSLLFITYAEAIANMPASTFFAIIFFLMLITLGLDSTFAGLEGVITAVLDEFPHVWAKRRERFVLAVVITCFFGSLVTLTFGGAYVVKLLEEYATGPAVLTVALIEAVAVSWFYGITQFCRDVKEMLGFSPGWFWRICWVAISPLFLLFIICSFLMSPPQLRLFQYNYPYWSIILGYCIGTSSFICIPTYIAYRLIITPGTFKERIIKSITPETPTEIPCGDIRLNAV

[5] = target: RAC-beta serine/threonine-protein kinase (Homo sapiens) (UniProt P31751); assay: Selectivity interaction (KinomeScan (DiscoverX)) EUB0000595a AKT2; settings: at 10 µM
RAC-beta serine/threonine-protein kinase (Homo sapiens), sequence (P31751 whole entry, canonical isoform): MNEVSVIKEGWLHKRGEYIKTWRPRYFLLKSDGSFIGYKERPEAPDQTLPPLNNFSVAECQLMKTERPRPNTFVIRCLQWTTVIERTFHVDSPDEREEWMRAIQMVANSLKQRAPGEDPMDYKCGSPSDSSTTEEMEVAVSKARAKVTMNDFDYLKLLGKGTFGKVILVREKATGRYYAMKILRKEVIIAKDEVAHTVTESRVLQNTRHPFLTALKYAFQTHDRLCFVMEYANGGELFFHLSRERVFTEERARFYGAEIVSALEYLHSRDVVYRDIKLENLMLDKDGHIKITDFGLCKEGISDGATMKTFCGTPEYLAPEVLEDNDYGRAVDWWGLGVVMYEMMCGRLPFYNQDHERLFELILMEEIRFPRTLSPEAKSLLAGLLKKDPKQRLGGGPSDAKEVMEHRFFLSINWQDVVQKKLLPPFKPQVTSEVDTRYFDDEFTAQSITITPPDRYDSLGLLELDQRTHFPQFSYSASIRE

[6] = target: Casein kinase I isoform delta (Homo sapiens, UniProt P48730); assay: Selectivity interaction (KinomeScan (DiscoverX)) EUB0000229b CSNK1D; settings: at 10 µM
Casein kinase I isoform delta, sequence (P48730 whole entry, looked up, canonical isoform): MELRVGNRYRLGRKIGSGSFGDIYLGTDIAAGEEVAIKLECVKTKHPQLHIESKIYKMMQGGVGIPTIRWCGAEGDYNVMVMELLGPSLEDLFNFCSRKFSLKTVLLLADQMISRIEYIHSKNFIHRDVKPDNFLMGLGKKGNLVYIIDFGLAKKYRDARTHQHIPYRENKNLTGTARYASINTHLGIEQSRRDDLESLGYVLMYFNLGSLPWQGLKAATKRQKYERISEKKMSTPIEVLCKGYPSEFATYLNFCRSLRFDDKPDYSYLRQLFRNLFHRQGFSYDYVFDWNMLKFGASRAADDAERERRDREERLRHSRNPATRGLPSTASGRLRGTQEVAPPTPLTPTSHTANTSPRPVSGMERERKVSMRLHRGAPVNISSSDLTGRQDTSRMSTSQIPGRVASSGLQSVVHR

[7] = target: Protein kinase C eta type (Homo sapiens) (UniProt P24723); assay: Selectivity interaction (KinomeScan (DiscoverX)) EUB0000229b PRKCH; settings: at 10 µM
[8] = target: Tyrosine-protein kinase JAK1 (Homo sapiens, UniProt P23458); assay: Selectivity interaction (KinomeScan (DiscoverX)) EUB0001079a JAK1; settings: at 1 µM
Tyrosine-protein kinase JAK1, sequence (P23458 whole entry): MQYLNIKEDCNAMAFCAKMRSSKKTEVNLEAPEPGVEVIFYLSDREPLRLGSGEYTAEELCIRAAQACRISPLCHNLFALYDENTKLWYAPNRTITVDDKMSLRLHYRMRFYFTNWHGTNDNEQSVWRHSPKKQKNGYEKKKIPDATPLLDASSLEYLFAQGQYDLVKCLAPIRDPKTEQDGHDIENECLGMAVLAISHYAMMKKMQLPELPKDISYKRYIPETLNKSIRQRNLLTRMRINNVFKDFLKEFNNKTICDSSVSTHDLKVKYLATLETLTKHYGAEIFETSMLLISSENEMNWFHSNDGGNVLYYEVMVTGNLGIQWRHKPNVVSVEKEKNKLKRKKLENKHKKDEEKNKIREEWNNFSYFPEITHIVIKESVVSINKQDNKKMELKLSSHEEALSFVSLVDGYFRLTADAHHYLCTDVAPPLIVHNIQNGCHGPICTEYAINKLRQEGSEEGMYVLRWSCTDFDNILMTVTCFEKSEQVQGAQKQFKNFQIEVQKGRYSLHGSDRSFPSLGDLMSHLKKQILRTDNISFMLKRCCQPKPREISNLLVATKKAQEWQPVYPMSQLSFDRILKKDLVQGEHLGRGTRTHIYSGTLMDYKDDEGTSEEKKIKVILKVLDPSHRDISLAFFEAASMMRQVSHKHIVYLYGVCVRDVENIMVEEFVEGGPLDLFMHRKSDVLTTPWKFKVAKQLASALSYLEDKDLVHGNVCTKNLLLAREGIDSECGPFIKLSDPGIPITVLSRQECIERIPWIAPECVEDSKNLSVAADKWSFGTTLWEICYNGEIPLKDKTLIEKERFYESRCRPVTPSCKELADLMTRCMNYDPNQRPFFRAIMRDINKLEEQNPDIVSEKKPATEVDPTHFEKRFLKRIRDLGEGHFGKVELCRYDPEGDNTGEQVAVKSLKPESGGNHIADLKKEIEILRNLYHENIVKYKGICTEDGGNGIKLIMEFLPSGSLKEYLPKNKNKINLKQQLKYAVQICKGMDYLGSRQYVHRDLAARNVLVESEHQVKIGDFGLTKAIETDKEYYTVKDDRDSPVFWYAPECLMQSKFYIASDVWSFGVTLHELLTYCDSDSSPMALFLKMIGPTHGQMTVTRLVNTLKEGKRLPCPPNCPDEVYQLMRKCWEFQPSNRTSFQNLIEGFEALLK

[9] = target: Calcium/calmodulin-dependent protein kinase kinase 1 (Homo sapiens) (UniProt Q8N5S9); assay: Selectivity interaction (ProQinase) EUB0000171b CAMKK1
Calcium/calmodulin-dependent protein kinase kinase 1 (Homo sapiens), sequence (Q8N5S9 whole entry, looked up): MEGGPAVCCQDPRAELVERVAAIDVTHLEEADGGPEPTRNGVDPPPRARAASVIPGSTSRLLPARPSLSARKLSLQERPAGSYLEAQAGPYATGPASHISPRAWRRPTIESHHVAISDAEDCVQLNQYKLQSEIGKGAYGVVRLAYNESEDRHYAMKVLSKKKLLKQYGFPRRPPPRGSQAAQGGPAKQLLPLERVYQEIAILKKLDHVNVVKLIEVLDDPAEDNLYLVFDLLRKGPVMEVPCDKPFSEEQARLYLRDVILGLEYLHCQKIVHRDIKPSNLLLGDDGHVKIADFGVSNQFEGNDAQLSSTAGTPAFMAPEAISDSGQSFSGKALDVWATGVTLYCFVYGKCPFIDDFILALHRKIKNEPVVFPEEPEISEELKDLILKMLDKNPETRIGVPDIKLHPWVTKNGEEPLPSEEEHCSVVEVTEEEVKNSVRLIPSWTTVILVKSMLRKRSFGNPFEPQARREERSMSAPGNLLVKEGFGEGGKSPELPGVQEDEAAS

[10] = target: Tyrosine-protein kinase Fyn (Homo sapiens) (UniProt P06241); assay: Selectivity interaction (KinomeScan (DiscoverX)) EUB0000092b FYN; settings: at 10 µM
Tyrosine-protein kinase Fyn (Homo sapiens), sequence (P06241 2-537 limits assumed): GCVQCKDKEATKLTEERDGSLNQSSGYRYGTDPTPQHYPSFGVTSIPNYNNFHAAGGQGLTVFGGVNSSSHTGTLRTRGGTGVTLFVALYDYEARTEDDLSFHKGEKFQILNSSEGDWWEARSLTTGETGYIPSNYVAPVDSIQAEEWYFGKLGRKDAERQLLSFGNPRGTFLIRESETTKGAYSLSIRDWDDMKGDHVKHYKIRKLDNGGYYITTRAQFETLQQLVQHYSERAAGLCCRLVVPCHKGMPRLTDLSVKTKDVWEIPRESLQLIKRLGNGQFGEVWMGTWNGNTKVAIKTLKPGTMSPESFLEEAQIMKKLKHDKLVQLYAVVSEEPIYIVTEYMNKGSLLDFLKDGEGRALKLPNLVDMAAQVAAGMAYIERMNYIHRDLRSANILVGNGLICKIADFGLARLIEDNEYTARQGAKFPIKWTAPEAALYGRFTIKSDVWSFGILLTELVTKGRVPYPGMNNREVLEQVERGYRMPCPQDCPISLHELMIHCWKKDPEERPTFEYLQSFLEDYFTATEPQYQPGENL

[11] = target: Bromodomain-containing protein 4 (Homo sapiens, UniProt O60885); assay: Selectivity interaction (Human bromodomain panel (DSF assay)) EUB0000233b BRD4
[12] = target: T3, Testis-specific serine/threonine-protein kinase 1 (Homo sapiens) (UniProt Q9BXA7); assay: Selectivity interaction (KinomeScan (DiscoverX)) EUB0000618a TSSK1A; settings: at 10 µM
T3 sequence (whole entry): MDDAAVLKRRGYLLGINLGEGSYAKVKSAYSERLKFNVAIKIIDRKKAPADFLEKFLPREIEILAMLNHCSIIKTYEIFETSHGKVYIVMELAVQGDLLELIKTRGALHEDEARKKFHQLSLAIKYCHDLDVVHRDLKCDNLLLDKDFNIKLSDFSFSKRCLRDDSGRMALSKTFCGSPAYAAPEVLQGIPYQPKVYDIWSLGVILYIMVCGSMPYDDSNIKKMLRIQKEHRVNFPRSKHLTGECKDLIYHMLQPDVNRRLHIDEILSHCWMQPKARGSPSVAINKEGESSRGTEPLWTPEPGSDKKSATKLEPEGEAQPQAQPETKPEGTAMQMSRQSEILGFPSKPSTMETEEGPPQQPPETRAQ

[13] = target: Serine/threonine-protein kinase 32A (Homo sapiens) (UniProt Q8WU08); assay: Selectivity interaction (KinomeScan (DiscoverX)) EUB0000607a STK32A; settings: at 10 µM
Serine/threonine-protein kinase 32A (Homo sapiens), sequence (Q8WU08 whole entry): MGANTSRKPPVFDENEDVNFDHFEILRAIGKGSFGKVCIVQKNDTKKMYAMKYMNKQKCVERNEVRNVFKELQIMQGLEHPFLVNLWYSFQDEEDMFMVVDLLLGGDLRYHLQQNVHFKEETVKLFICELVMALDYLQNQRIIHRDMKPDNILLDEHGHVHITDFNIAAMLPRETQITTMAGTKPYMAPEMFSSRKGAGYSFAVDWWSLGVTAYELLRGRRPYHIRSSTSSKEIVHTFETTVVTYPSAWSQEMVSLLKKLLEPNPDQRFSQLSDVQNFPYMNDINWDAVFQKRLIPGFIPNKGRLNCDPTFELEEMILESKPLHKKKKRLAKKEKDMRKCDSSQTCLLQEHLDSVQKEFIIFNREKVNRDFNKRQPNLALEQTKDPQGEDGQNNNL

[14] = target: Ribosomal protein S6 kinase beta-1 (Homo sapiens, UniProt P23443); assay: Selectivity interaction (KinomeScan (DiscoverX)) EUB0000607a RPS6KB1; settings: at 10 µM
Ribosomal protein S6 kinase beta-1, sequence (P23443 whole entry, looked up): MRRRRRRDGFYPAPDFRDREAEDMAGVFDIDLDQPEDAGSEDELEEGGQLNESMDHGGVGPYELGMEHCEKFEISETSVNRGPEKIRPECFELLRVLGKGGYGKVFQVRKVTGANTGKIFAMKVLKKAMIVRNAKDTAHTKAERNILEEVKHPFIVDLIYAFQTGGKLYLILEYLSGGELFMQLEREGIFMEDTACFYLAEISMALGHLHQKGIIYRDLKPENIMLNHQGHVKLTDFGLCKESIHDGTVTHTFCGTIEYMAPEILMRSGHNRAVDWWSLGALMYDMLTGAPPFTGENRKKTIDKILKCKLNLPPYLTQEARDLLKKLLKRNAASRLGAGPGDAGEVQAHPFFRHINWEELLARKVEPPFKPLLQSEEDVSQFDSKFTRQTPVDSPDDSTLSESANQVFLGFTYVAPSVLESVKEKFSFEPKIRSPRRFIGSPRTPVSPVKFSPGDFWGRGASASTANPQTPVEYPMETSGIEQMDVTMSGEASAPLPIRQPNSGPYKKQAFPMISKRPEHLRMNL

SMILES: CN(C)C/C=C/C(=O)Nc1ccc(C(=O)N2CCCC(Nc3ncc(Cl)c(-c4c[nH]c5ccccc45)n3)C2)cc1 (stereo not given)
- % of control [1]: 94%

- % of inhibition [2]: -63.6%
SMILES: Cn1cc(-n2cnc3c(NCc4nc5cc(Cl)c(Cl)cc5[nH]4)nc(N4CCOCC4)nc32)cn1

- % of control [3]: 100%
SMILES: CCN(CC)CCCCNc1ncc2cc(-c3cc(OC)cc(OC)c3)c(NC(=O)NC(C)(C)C)nc2n1

SMILES: Cc1cc(C)cc([C@@H]2c3cc(C)ccc3NC(=O)CN2C(=O)c2ccc(Br)s2)c1
- % of inhibition [4]: -17%

SMILES: COCC(=O)NC/C=C/c1ccc2ncnc(Nc3ccc(Oc4ccc(C)nc4)c(C)c3)c2c1 [CP-724714]
- % of control [5]: 100%

SMILES: COc1cc(N(C)c2ccnc3ccc(C(F)(F)F)cc23)cc(OC)c1OC
- % binding [6]: 69%
- % binding [7]: 96%

SMILES: Nc1cnc(N2CCc3cc(S(=O)(=O)Nc4c(F)cc(Cl)cc4F)cc(N4CCCC4=O)c32)nc1 [TP-020n]
- % of control [8]: 93%

- % of control ([9]; at 1 µM): 98%
- % of control ([9]; at 5 µM): 108%
SMILES: C=CC(=O)Nc1cccc(C(=O)Nc2ccc(Nc3cc(-c4[nH]c(SC)nc4C)ccn3)cc2)c1

SMILES: CCC(=O)N1CCN(c2ccc(-n3c(=O)ccc4cnc5ccc(-c6cnc7ccccc7c6)cc5c43)cc2C(F)(F)F)CC1
- % of control [10]: 49%

- dTM [11]: < 2 K
SMILES: CN(C)CCCOc1ccc(-c2cc(NCCCn3cccn3)nc(S(C)(=O)=O)n2)cc1

SMILES: O[C@H]1CC[C@H](Nc2ncc3nc(Nc4c(F)cc(F)cc4F)n([C@H]4CCOC4)c3n2)CC1
- % of control [12]: 100%

SMILES: CNC(=O)Nc1ccc(-c2nc(N3CC4CCC(C3)O4)c3cnn(C4CCC5(CC4)OCCO5)c3n2)cc1
- % of control [13]: 99%
- % of control [14]: 100%
